# Assay results: US6933272B1 (priority 1998, dated 2005)
# Read-outs that look alike come from different tables or passages of the source.
# Key:
# [1] = biological target: insulin receptor β-subunit associated tyrosine kinase activity (Homo sapiens, UniProt P06213); assay: Protein tyrosine kinase (PTK) assay, 32P incorporation into FYF peptide; assay type: biochemical; settings: for effect of compound alone on 32P incorporation into FYF peptide: basal, absence of insulin; for Ki: read-out: estimated inhibition constant, PTK assay
# Protocol: Protein tyrosine kinase activity was determined using a modification of the method of N. Konstantopoulos (22).
# The reaction was allowed to proceed for 20 minutes at 30° C. before it was terminated by the addition of 12.5 μL of 7.5 M guanidine hydrochloride. An aliquot (10 μL) of the reaction mixture was then spotted onto a Whatman 81 phosphocellulose paper (15 mm×15 mm), washed three times (2 min per wash) in about 50 mL of 30% acetic acid, 0.05% orthophosphoric acid then finally, with one wash in about 200 mL of water. The papers were then rinsed briefly (15 sec) in 95% ethanol, dried, suspended in 2.5 mL of scintillation fluid (Beckman) and counted for radioactivity in a Beckman β-counter.
# [2] = biological target: T1, insulin receptor (Homo sapiens, UniProt P06213); assay: Assays of insulin action (several biological assays, classification agonist/antagonist)
# Target sequence in this assay (P06213 with tags, fused parts or gaps): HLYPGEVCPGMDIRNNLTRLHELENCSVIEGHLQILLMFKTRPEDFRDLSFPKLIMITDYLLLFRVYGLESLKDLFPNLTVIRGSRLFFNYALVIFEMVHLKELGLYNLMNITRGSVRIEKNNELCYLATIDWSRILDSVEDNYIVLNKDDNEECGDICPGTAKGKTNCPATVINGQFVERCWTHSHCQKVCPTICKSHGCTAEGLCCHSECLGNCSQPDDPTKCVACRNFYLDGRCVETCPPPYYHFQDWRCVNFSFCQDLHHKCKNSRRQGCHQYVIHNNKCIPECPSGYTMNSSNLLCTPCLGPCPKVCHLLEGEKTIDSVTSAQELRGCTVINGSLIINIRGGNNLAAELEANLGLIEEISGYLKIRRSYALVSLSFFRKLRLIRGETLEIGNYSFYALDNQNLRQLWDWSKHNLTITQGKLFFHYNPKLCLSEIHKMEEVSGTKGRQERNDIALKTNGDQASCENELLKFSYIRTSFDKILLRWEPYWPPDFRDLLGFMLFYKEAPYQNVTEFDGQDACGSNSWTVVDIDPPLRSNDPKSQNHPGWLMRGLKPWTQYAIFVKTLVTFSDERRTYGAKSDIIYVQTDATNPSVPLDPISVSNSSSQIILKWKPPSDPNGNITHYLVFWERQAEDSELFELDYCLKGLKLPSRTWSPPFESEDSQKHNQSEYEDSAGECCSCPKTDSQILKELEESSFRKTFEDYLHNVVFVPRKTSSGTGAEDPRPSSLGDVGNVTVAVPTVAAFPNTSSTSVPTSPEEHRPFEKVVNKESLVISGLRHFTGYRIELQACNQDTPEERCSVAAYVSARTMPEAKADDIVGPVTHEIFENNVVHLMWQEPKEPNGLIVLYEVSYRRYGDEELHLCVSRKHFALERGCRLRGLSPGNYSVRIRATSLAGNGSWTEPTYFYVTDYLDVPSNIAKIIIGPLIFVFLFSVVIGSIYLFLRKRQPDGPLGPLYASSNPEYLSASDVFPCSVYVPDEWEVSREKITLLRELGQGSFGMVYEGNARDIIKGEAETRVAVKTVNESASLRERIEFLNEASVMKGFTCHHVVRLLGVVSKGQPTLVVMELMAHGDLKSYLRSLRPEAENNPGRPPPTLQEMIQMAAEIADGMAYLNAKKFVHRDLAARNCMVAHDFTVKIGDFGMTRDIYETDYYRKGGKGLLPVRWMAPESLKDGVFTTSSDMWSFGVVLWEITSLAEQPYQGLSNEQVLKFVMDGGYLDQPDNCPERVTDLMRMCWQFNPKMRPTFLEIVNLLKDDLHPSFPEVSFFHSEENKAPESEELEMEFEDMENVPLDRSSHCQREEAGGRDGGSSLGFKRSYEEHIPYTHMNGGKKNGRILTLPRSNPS
# [3] = tested on: 3T3L1 adipocyte cells; assay: Glucose transport (3H-deoxyglucose uptake) in 3T3L1 adipocyte cells; assay type: cell-based, mouse
# Protocol: Glucose transport was determined using a modification of the method of S. J. Isakoff et at. (23). The assay involved measuring the effect of compounds on the uptake of ^3H-deoxyglucose into 3T3L1 adipocyte cells.
# The cell line, 3T3-L1, derived from mouse embryo fibroblasts, was grown in 250 mL tissue culture flasks containing 15 mL medium made up of DMEM (Dulbecco's modified Eagle's medium containing glutamine, 2 mM; sodium bicarbonate, 30 mM; penicillin 71.5 mg/litre; streptomycin, 152.5 mg/litre) supplemented with 10% foetal calf serum (FCS), pH 7.4. Cells were maintained in a humidified incubator at 37° C. in a 5% CO2 environment. The medium was changed every 3 days and the cells were split when they were about 70-80% confluent.
# 3T3-L1 fibroblast cells from one tissue culture flask were suspended in 50 mL of DMEM media containing 10% FCS and 0.5 mL of this suspension were seeded into each well of two 48-well tissue culture plates. The differentiation of the cells was initiated when the fibroblast cells were fully confluent. Routinely, differentiation was induced on cells that had been growing in tissue culture plates for 4-5 days. […] The cells were subsequently maintained with DMEM medium containing 10% FCS.
# One day prior to the glucose transport assay, cell medium was replaced with DMEM containing 10% charcoal-treated foetal calf serum (CTFCS). On the day of the assay, the medium was aspirated and each well was washed with 1 mL of 25 mM Hepes, pH 7.4 containing 0.9% NaCl (NaCl-HEPES). […] Ten microlitres of NaCl-HEPES containing 3 mM 2-deoxy-D-glucose and 0.1 μCi 2-deoxy-D-[1-^3H]glucose were then added. Following a 10 min incubation at 37° C., the medium was aspirated off and the wells rapidly washed three times with 1 mL of ice-cold 50 mM phosphate, pH 7.5 containing 150 mM NaCl (PBS) and 10 mM glucose. Two hundred microlitres of 3% Triton X-100 was then added to each well and left to incubate for a minimum of 10 minutes. One hundred microlitres of the solubilised cells was then added to 2.5 mL of liquid scintillation fluid and counted for radioactivity in a Beckman β-counter.
# [4] = biological target: T1, insulin receptor; assay: 125I insulin binding to wheat germ agglutinin purified insulin receptors (WGA.IR); design: host or cells: several: placental membranes, CHO.T11 cells, WGA purified receptors; settings: LIGAND 1-site fit
# Protocol: (§1) Tubes were mixed and incubated for 16 h at 4° C. After the incubation, the tubes were placed on ice and 300 μL of a 1:5 suspension of 0.4% bovine-γ-globulin in 20% polyethyleneglycol 6000 (BDH chemicals) was added to each tube, mixed thoroughly and left to incubate for 30 min on ice. The tubes were then centrifuged (3,000 g) for 30 min at 4° C., the supernatant was aspirated off and the pellet counted for radioactivity. […] Inhibition constants were estimated by graphical analysis of displacement plots or calculated using the curve fitting programs EBDA and/or LIGAND.
# Target sequence in this assay (P06213 28-758 limits assumed): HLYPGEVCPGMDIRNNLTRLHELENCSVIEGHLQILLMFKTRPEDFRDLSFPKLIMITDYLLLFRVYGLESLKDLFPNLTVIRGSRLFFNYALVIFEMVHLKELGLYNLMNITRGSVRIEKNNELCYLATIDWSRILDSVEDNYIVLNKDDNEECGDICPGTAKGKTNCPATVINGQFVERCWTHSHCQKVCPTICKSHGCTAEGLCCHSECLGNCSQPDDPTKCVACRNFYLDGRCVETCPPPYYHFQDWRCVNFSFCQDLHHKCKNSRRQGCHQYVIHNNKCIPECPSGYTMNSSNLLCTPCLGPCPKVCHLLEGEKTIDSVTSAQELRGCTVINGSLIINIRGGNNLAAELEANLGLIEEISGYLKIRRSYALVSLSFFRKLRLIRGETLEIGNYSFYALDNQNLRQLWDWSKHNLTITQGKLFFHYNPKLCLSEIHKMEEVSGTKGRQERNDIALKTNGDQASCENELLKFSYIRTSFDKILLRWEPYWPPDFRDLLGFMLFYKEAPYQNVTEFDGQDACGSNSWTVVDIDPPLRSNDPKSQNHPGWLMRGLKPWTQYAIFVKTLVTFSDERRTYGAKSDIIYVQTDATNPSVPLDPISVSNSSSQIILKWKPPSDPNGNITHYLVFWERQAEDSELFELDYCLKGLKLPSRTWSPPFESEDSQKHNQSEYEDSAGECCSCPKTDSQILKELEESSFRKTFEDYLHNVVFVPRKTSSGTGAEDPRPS
# [5] = biological target: T1, insulin receptor; assay: 125I insulin binding, insulin receptors from a number of sources; design: host or cells: several: placental membranes, CHO.T11 cells, WGA purified receptors; settings: range over receptor sources
# Protocol: as §1
# Target sequence in this assay (P06213 28-758 limits assumed): as above
# [6] = biological target: T1, insulin receptor; assay: 125I insulin binding to CHO.T11 cells; design: expressed in transfected cells
# Protocol: as §1
# Target sequence in this assay (P06213 28-758 limits assumed): as above
# [7] = biological target: T1, insulin receptor; assay: 125I insulin binding to human placental plasma membranes (HPPM); design: Human Placental Plasma Membranes—50 mM Hepes, pH 7.8 @ 4 C containing 100 U/mL Bacitracin; from tissue; host or cells: human placenta, plasma membranes
# Protocol: as §1
# Target sequence in this assay (P06213 28-758 limits assumed): as above
# [8] = biological target: IGF-1 receptor (Homo sapiens, UniProt P08069); assay: 125I IGF-1 binding to human placental plasma membranes (HPPM); design: from tissue; host or cells: human placenta, plasma membranes; settings: HPPM; read-out: Ki, competition for 125I IGF-1 binding
# [9] = read-out: estimated IC50, 32P incorporation into FYF peptide
# [10] = Mus musculus, 3T3-L1; read-out: estimated IC50, glucose transport
# [11] = human placental plasma membranes, 16 h at 4° C.
# [12] = 3T3L1 cells, 2 nM insulin; read-out: estimated inhibition constant (Ki), glucose transport assay
# insulin receptor β-subunit associated tyrosine kinase activity, sequence (P06213 28-758 limits assumed): as above
# IGF-1 receptor, sequence (P08069 31-736 limits assumed): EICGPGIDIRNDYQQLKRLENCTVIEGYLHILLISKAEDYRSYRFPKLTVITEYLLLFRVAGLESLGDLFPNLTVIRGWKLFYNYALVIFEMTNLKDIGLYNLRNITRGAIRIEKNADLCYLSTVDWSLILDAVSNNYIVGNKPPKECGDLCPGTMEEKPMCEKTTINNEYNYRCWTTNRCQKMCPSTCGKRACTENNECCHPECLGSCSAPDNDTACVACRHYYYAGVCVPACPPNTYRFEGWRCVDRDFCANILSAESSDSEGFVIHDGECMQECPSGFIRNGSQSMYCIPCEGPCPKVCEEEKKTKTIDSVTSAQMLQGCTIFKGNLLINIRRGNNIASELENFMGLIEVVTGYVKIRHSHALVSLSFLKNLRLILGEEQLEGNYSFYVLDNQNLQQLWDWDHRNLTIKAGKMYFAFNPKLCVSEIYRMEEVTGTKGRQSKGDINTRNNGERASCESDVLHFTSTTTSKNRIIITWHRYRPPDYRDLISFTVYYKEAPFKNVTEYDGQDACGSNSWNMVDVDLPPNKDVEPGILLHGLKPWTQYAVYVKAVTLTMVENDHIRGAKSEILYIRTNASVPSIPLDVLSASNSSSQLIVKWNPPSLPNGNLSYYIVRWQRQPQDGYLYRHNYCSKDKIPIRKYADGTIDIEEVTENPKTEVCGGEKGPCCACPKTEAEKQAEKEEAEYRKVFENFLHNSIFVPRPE
Compound,classification of insulin action [2],Ki [4],"Ki [7, 11]","Ki [3, 12]",effect of compound alone on 32P incorporation into FYF peptide [1],Ki [1],"effect of compound alone on glucose transport ([3]; basal, no insulin)",other results
"O=C(O)c1cc2ccccc2c(Cc2c(O)c(C(=O)O)cc3ccccc23)c1O [IM 025, 4,4′-Methylenebis[3-hydroxy-2-naphthalenecarboxylic acid]]",antagonists of insulin action,108 ± 32 µM,–,–,–,–,–,"IC50 [1, 9]: 150 µM; IC50 [3, 10]: 170 µM; Ki [5]: 100 to 400 µM; Ki [6]: 137 to 337 µM"
"CCCc1c(OCCCOc2cc(O)c(C(C)=O)cc2CC)ccc2c1OC(C(=O)O)CC2 (stereo not shown) [IM 071, 7-[3-(4-acetyl-2-ethyl-5-hydroxyphenoxy)propoxy]-3,4-dihydro-8-propyl-2H-1-benzopyran-2-carboxylic acid]",antagonists of insulin action,–,–,–,–,–,–,–
"O=S(=O)(NS(=O)(=O)C(F)(F)F)c1cc(Cl)cc(Cl)c1OS(=O)(=O)c1cc(Cl)cc(Cl)c1O [IM 103, 2,4-dichloro-6-(N-(trifluoromethanesulfonyl))sulfamoylphenyl 3,5-dichloro-2-hydroxybenzenesulfonate]",agonists of insulin action,83 µM,137 ± 45 µM,–,–,–,–,"Ki [8]: 59 µM; EC50 ([3]; Mus musculus, 3T3-L1; compound alone; read-out: apparent EC50, stimulation of glucose transport): 45 ± 7 µM; efficacy compared with insulin, glucose transport ([3]; compound alone, relative to maximal dose of insulin (100 nM)): about 15%; concentration at apex of bi-phasic dose response curve ([3]; glucose transport): 110 µM; effect on insulin stimulated glucose transport ([3]; in presence of insulin (2 nM)): abolishes the insulin stimulation of glucose transport in a dose dependent manner; Ki [6]: 132 ± 29 µM"
"CCCc1c(COc2ccc3c(=O)cc(C(=O)O)oc3c2CCC)ccc(C(C)=O)c1O [IM 127, 7-[(4-acetyl-3-hydroxy-2-propylphenyl)methoxy]-4-oxo-8-propyl-4H-1-benzopyran-2-carboxylic acid]",antagonists of insulin action,295 µM,140 to 320 µM,60 µM,–,–,–,–
"CCCc1c(OCCCOc2cc(O)c(-c3cc[nH]n3)cc2CC)ccc2c1OC(C(=O)O)CC2 (stereo not shown) [IM 132, 3,4-dihydro-8-propyl-7-[[3-[2-ethyl-5-hydroxy-4-(1H-pyrazol-3-yl)phenoxy]propyl]oxy]-2H-1-benzopyran-2-carboxylic acid]",antagonists of insulin action,–,–,64 µM,does not increase ^32P incorporation into FYF peptide,360 µM,does not increase ^32P incorporation into FYF peptide or activate glucose transport,effect on insulin stimulated glucose transport ([3]; in presence of insulin (2 nM)): significant synergism with insulin; Ki [5]: 200 to 450 µM
"CCCc1c(OCCCOc2cc(O)c(OCC)cc2CC)ccc2c1OC(C(=O)O)CC2 (stereo not shown) [IM 134, 3,4-dihydro-8-propyl-7-[[3-[2-ethyl-5-hydroxy-4-ethoxyphenoxy]propyl]oxy]-2H-1-benzopyran-2-carboxylic acid]",antagonists of insulin action,–,900 µM,60 to 110 µM,does not increase ^32P incorporation into FYF peptide,300 to 400 µM,does not increase ^32P incorporation into FYF peptide or glucose transport,–
"CCCc1c(OCc2ccc3ccccc3n2)ccc2c1OC(C(=O)O)CC2 (stereo not shown) [IM 143, 8-propyl-7-(quinol-2′-ylmethoxy)-3,4-dihydro-2H-1-benzopyran-2-carboxylic acid]",antagonists of insulin action,–,–,40 µM,–,–,does not stimulate glucose transport activity,Ki ([7]; human placental plasma membranes): ~2000 µM
"CCCc1c(OCc2ccc3ccccc3c2)ccc2c1OC(C(=O)O)CC2 (stereo not shown) [IM 144, 7-(naphth-2′-ylmethoxy)-8-propyl-3,4-dihydro-2H-1-benzopyran-2-carboxylic acid]",antagonists of insulin action,–,900 µM,125 µM,does not increase ^32P incorporation into FYF peptide,130 µM,does not increase ^32P incorporation into FYF peptide or activate glucose transport,–
"CCCN(CCC)c1c([N+](=O)[O-])cc(S(=O)(=O)NS(=O)(=O)C(F)(F)F)cc1[N+](=O)[O-] [IM 145, N-(trifluoromethanesulfonyl)-3,5-dinitro-4-(N′,N′-dipropylamino)benzenesulfonamide]",antagonists of insulin action,–,–,–,does not stimulate PTK,–,does not stimulate PTK or glucose transport activity,"IC50 [1]: 90 µM; Ki [7]: ~1000 µM; IC50 ([3]; Mus musculus, 3T3-L1, read-out: estimated IC50, glucose transport): 60 µM"
"CCCc1c(OCCCOc2cc(O)c(-c3ccc(F)cc3)cc2CC)ccc2c1OC(C(=O)O)CC2 (stereo not shown) [IM 171, 8-propyl-7-[3-[4-(4-fluorophenyl)-2-ethyl-5-hydroxyphenoxy]propoxy]-3,4-dihydro-2H-1-benzopyran-2-carboxylic acid]",antagonists of insulin action,–,370 µM,–,does not increase ^32P incorporation into FYF peptide,–,does not increase ^32P incorporation into FYF peptide or activate glucose transport,"IC50 [1, 9]: 250 µM; IC50 [3, 10]: 80 µM"
